Measurements published in PubChem BioAssay AID1963830 (Molecular Pharmacology Branch, DTP, NCI, 2024).

System: 922993-354-T-J3-PDC complex spheroid viability
Experiment: Anticancer human tumor 922993-354-T-J3-PDC patient-derived endometrial carcinoma cell line growth inhibition [POLQ]
Conditions: for IC50: curve of first compound; for viability, T/C: stronger effect = lower value; active = viability on the fitted dose curve at most 10% of control; inactive = the rest
Protocol: Multicellular complex tumor spheroid response to Polymerase (POL) inhibitors (novobiocin, ART-558, RP6685) in combination with a variety of drugs and investigational agents in selected tumor cell lines
The POL inhibitors (novobiocin, ART-558, and RP6685) were evaluated both individually and in combination with standard of care and investigational anticancer small molecules within a complex spheroid model of solid tumors. . Complex spheroids include a stromal component modeled by human endothelial cells (HUVEC) and fibroblasts modeled by human mesenchymal stem cells (MSCs). The concentration ranges selected for each drug and investigational agent were based upon clinically achievable concentrations if the clinical Cmax of the agent was known.
Compounds. The drugs and investigational agents: novobiocin (NSC847541), ART-558 (NSC835418), RP-6685 (NSC848927), peposertib (NSC802822), ceralasertib (NSC780249), elimusertib (NSC800525), camonsertib (NSC841442), AZD-1390 (NSC803789), olaparib (NSC753686), talazoparib (NSC767125), rucaparib (NSC756644), sotorasib (NSC818433), MRTX-1133 (NSC836407), SN-38 (NSC673596), topotecan (NSC609699), epotoside (NSC141540), doxorubicin (NSC123127), gemcitabine (NSC613327), 5-fluorouracil (NSC19893), paclitaxel (NSC125973), vemurafenib (NSC761431), MSA-2 (NSC828583), SN-011 (NSC837082), adavosertib (NSC754352), prexasertib (NSC758257), carboplatin (NSC241240) and oxaliplatin (NSC266046), were obtained from the National Cancer Institute (NCI) Developmental Therapeutics Program Chemical Repository (21). The FDA-approved anticancer drug set is available from the Developmental Therapeutics Program at https://dtp.cancer.gov/organization/dscb/obtaining/. […] The stock solutions were prepared in dimethyl sulfoxide (DMSO, Sigma-Aldrich, St. Louis, MO, cat. D2650), except for the platinum compounds which were prepared in saline (Quality Biological, Gaithersburg, MD, cat. 114-055-101), at 800-fold the tested concentration and stored at -70 degrees C prior to their use. All drugs and investigational agents were tested over a range starting from a high concentration at or near the clinical Cmax and decreasing in half-log increments. If the clinical Cmax for an agent had not been determined, the highest concentration tested was 10 microM, except for SN-38, which was tested at a high concentration of 1 microM.
Cell Culture. All cells were maintained in an incubator at 37 degrees C and 5% CO2 with 95% humidity. The PDC lines were cultured according to standard operating procedures established by the NCI PDMR (https://pdmr.cancer.gov). Table 3 of the manuscript, lists the cell lines along with the number of the three cell types plated to form the mct-spheroids and media for tumor cell growth. After thawing, all PDC lines, except 997537-175-T-J1-PDC and 415267-285-R-J2-PDC, were cultured in Matrigel-coated flasks prepared with a working solution of 1X Ham's F-12 nutrient mix, without supplementation (Thermo Fisher Scientific, cat. 11765054), 100 U/mL penicillin-streptomycin (Thermo Fisher Scientific, cat. 15140122), and 2.5% Matrigel (Corning Inc., Corning, NY, cat. 354248) for the first three passages. The two PDC lines 997537-175-T-J1-PDC and 415267-285-R-J2-PDC were cultured on uncoated flasks. The 857933-349-R-J2-PDC line was cultured in 6C/Colon 1B media containing advanced DMEM/F-12 (Thermo Fisher Scientific, cat. 12634028), 10 mM HEPES (Thermo Fisher Scientific, cat. 15630080), 1X GlutaMAX supplement (Thermo Fisher Scientific, cat. 35050061), 0.1 mg/mL primocin (InvivoGen, San Diego, CA, cat. ant-pm-2), 10% defined fetal bovine serum, heat inactivated (HyClone Laboratories Inc., Logan, UT, cat. SH30070.03HI), 50% L-WRN conditioned media (ATCC, cat. CRL-3276), 1.25 mM N-Acetyl-L-cysteine (Sigma-Aldrich, cat. A9165), 10 mM nicotinamide (Sigma-Aldrich, cat. N0636), 1X B-27 supplement (Thermo Fisher Scientific, cat. 17504044), 1X N-2 supplement (Thermo Fisher Scientific, cat. […]

[1] = second compound 0.0316 µM, first compound 0.00316 µM
[2] = second compound 0.0316 µM, first compound 0.01 µM
[3] = second compound 0.0316 µM, first compound 0.0316 µM
[4] = second compound 0.0316 µM, first compound 0.1 µM
[5] = second compound 0.1 µM, first compound 0.00316 µM
[6] = second compound 0.1 µM, first compound 0.01 µM
[7] = second compound 0.1 µM, first compound 0.0316 µM
[8] = second compound 0.1 µM, first compound 0.1 µM
[9] = second compound 0.316 µM, first compound 0.00316 µM
[10] = second compound 0.316 µM, first compound 0.01 µM
[11] = second compound 0.316 µM, first compound 0.0316 µM
[12] = second compound 0.316 µM, first compound 0.1 µM
[13] = second compound 1 µM, first compound 0.00316 µM
[14] = second compound 1 µM, first compound 0.01 µM
[15] = second compound 1 µM, first compound 0.0316 µM
[16] = second compound 1 µM, first compound 0.1 µM
[17] = second compound 3.16 µM, first compound 0.00316 µM
[18] = second compound 3.16 µM, first compound 0.01 µM
[19] = second compound 3.16 µM, first compound 0.0316 µM
[20] = second compound 3.16 µM, first compound 0.1 µM
[21] = second compound 10 µM, first compound 0.00316 µM
[22] = second compound 10 µM, first compound 0.01 µM
[23] = second compound 10 µM, first compound 0.0316 µM
[24] = second compound 10 µM, first compound 0.1 µM
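Also: spheroids exposed to the agents for one week.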
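For viability, T/C in this document: 100% = DMSO vehicle control wells.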

C=CCn1c(=O)c2cnc(Nc3ccc(N4CCN(C)CC4)cc3)nc2n1-c1cccc(C(C)(C)O)n1 + COC1C(OC(N)=O)C(O)C(Oc2ccc3c(O)c(NC(=O)c4ccc(O)c(CC=C(C)C)c4)c(=O)oc3c2C)OC1(C)C
> 1000 nM: IC50 (second compound 0.0316 µM) | IC50 (second compound 0.1 µM) | IC50 (second compound 0.316 µM) | IC50 (second compound 1 µM) | IC50 (second compound 3.16 µM) | IC50 (second compound 10 µM)
inactive: viability, T/C [1] 91.7% | viability, T/C [2] 105% | viability, T/C [3] 97.4% | viability, T/C [4] 101% | viability, T/C (second compound 0.0316 µM, first compound 0.316 µM) 118% | viability, T/C (second compound 0.0316 µM, first compound 1 µM) 94.9% | viability, T/C [5] 94% | viability, T/C [6] 96.3% | viability, T/C [7] 101% | viability, T/C [8] 102% | viability, T/C (second compound 0.1 µM, first compound 0.316 µM) 106% | viability, T/C (second compound 0.1 µM, first compound 1 µM) 103% | viability, T/C [9] 101% | viability, T/C [10] 104% | viability, T/C [11] 85% | viability, T/C [12] 95.4% | viability, T/C (second compound 0.316 µM, first compound 0.316 µM) 102% | viability, T/C (second compound 0.316 µM, first compound 1 µM) 84.9% | viability, T/C [13] 108% | viability, T/C [14] 95.7% | viability, T/C [15] 88.9% | viability, T/C [16] 96.2% | viability, T/C (second compound 1 µM, first compound 0.316 µM) 100% | viability, T/C (second compound 1 µM, first compound 1 µM) 93.4% | viability, T/C [17] 94.4% | viability, T/C [18] 97.7% | viability, T/C [19] 101% | viability, T/C [20] 91.1% | viability, T/C (second compound 3.16 µM, first compound 0.316 µM) 102% | viability, T/C (second compound 3.16 µM, first compound 1 µM) 91.3% | viability, T/C [21] 94.6% | viability, T/C [22] 69.8% | viability, T/C [23] 78% | viability, T/C [24] 88.8% | viability, T/C (second compound 10 µM, first compound 0.316 µM) 106% | viability, T/C (second compound 10 µM, first compound 1 µM) 81.2%

CC[C@@]1(O)C(=O)OCc2c1cc1n(c2=O)Cc2cc3c(CN(C)C)c(O)ccc3nc2-1 + COC1C(OC(N)=O)C(O)C(Oc2ccc3c(O)c(NC(=O)c4ccc(O)c(CC=C(C)C)c4)c(=O)oc3c2C)OC1(C)C
84.1 nM: IC50 (second compound 0.316 µM)
70.8 nM: IC50 (second compound 0.1 µM)
78.3 nM: IC50 (second compound 10 µM)
inactive: viability, T/C (second compound 0.0316 µM, first compound 0.000316 µM) 102% | viability, T/C (second compound 0.0316 µM, first compound 0.001 µM) 83% | viability, T/C [1] 98.2% | viability, T/C [2] 93.5% | viability, T/C [3] 76% | viability, T/C [4] 41.3% | viability, T/C (second compound 0.1 µM, first compound 0.000316 µM) 100% | viability, T/C (second compound 0.1 µM, first compound 0.001 µM) 101% | viability, T/C [5] 102% | viability, T/C [6] 98.8% | viability, T/C [7] 75.3% | viability, T/C [8] 39.1% | viability, T/C (second compound 0.316 µM, first compound 0.000316 µM) 100% | viability, T/C (second compound 0.316 µM, first compound 0.001 µM) 96.6% | viability, T/C [9] 100% | viability, T/C [10] 96.5% | viability, T/C [11] 85.9% | viability, T/C [12] 43.6% | viability, T/C (second compound 1 µM, first compound 0.000316 µM) 108% | viability, T/C (second compound 1 µM, first compound 0.001 µM) 98.7% | viability, T/C [13] 96.9% | viability, T/C [14] 94.6% | viability, T/C [15] 73.3% | viability, T/C [16] 39.2% | viability, T/C (second compound 3.16 µM, first compound 0.000316 µM) 93.9% | viability, T/C (second compound 3.16 µM, first compound 0.001 µM) 99% | viability, T/C [17] 89.7% | viability, T/C [18] 90.9% | viability, T/C [19] 79% | viability, T/C [20] 37.2% | viability, T/C (second compound 10 µM, first compound 0.000316 µM) 92.6% | viability, T/C (second compound 10 µM, first compound 0.001 µM) 76.9% | viability, T/C [21] 88.3% | viability, T/C [22] 84.4% | viability, T/C [23] 84.6% | viability, T/C [24] 40.7%
70.7 nM: IC50 (second compound 3.16 µM)
74.9 nM: IC50 (second compound 0.0316 µM)
70.3 nM: IC50 (second compound 1 µM)
